The record followed here is patent US10947245B2, “Crystal form A of 2-butoxy-7-(4-(pyrrolidin-1-ylmethyl)benzyl)-5H-pyrrolo[3,2-d]pyrimidin-4-amine for inhibiting toll-like receptor activity” (priority 2016, dated 2021).

In series [1] the test system is human peripheral blood mononuclear cells (PBMC). Description: Peripheral blood mononuclear cell test: cytokine stimulation (CBA, flow cytometer). The format is cell-based. Conditions: for TNF-α MEC / IFN-α MEC: human PBMC, 24 h; for IFN-α MEC: lowest drug concentration stimulating the production of 30 pg/mL of IFN-α. The protocol: The purpose of this example is to determine the expression level of cytokines 24 h after stimulation to human peripheral blood mononuclear cells (PBMC) with the compound of formula I.
The cell supernatant was assayed without dilution and the levels of IFN-α were directly determined. The compound of formula I was firstly formulated into 20 mM DMSO stock solution during the test and was gradient diluted with cell medium in 10-fold with the total number of 11 diluting points. The compounds in 9 diluting points (the highest concentration was 200 μmol/L) were added into 96-well plate with 50 μL in each well. Fresh human peripheral blood mononuclear cells were inoculated, with 150 μL in each well containing 450,000 cells. The cell culture plate was incubated in an incubator at 37° C., 5% CO2 for 24 h. After incubation, the culture plate was centrifuged at 1200 rpm for 5 min and the supernatant was collected and stored at −20° C. for determination. The determination of cytokine was performed using Cytometric Bead Array (CBA) of BD-Pharmingen on flow cytometer. Using the above determining method, the lowest drug concentration stimulating the production of 30 pg/mL of IFN-α was designated as the MEC value in the cytokine stimulating test.
For orientation: In flow cytometry, cells or beads pass a laser one at a time.

The target of a further series is T1, Toll-like receptor 7 (Homo sapiens, UniProt Q9NYK1).
T1 construct: host or cells: HEK-blue hTLR7 cell (HEK293-derived reporter line)
T1 sequence (Q9NYK1 27-1049): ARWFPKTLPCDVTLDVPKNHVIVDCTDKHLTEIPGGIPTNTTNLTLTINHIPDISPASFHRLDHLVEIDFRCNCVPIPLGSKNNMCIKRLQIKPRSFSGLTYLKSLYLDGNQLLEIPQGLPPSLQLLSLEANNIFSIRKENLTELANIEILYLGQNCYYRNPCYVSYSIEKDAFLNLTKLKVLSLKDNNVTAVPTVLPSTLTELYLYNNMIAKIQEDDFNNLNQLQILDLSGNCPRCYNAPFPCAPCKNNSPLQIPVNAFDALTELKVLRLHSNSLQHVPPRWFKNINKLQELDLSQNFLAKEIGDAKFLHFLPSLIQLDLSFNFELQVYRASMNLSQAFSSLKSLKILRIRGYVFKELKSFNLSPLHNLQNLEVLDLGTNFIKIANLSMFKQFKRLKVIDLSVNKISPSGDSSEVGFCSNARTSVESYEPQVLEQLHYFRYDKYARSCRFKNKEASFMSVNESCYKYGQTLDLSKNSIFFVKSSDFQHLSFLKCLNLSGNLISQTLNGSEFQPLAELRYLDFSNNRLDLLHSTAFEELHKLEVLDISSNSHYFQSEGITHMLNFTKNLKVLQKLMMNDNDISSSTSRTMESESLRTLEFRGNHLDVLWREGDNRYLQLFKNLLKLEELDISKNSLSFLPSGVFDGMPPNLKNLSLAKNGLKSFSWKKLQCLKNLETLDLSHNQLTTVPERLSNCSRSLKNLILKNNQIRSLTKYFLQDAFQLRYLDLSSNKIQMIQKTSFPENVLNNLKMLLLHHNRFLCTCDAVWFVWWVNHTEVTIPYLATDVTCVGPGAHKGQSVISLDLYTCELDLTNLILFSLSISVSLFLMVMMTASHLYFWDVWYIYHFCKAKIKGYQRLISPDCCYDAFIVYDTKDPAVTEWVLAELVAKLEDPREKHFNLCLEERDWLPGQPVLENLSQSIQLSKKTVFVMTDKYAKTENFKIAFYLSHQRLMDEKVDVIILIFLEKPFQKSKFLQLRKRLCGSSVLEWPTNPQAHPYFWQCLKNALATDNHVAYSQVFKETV
The series can be described thus: Toll-like receptor 7 in vitro receptor binding activity screen (HEK-blue hTLR7 cell, Quanti-Blue alkaline phosphatase readout). Format: cell-based. The following applies: versus GS-9620. The protocol:
(§1) Efficacy example 1: Toll-like receptor 7 and Toll-like receptor 8 in vitro receptor binding activity screen
(§2) HEK-blue hTLR7 cell and HEK-blue hTLR8 cell (available from InvivoGen)
(§3) The compounds were gradient diluted with DMSO in 3-fold using liquid work station POD starting at a concentration of 10 mmol/L and 10 points were diluted (2nd column to 11th column, and each point was duplicated). At 12th column, 1 μL of 5 mg/mL positive compound R848 was added as positive control; and at 1st column, 1 μL of DMSO was added as negative control. Each well contained 1 μL of DMSO.
(§4) 2. The cells in culture flask were collected and the cell density was diluted to 250,000 cells/mL.
(§5) 3. 200 μL (50,000 cells/well) of cell suspension was added into prepared compound plate and the final concentration of DMSO in each well was 0.5%.
(§6) 4. The culture plates containing cells and the compounds were incubated in CO2 incubator for 24 h at 37° C., 5% CO2.
(§7) 5. After 24 h incubation, 20 μL of supernatant was removed from each well to a 96-well transparent assay plate. To each well of the assay plate was added 180 μL of Quanti-Blue reagent and the plate was incubated in an incubator at 37° C., 5% CO2 for 1 h.
(§8) 6. After 1 h, the content of alkaline phosphatase in 20 μL of supernatant was determined using Microplate Reader OD650.
(§9) 7. EC50 of each compound was obtained with Prism software.

For another series, the target named is T2, Toll-like receptor 8 (Homo sapiens, UniProt Q9NR97).
T2 construct: host or cells: HEK-blue hTLR8 cell (HEK293-derived reporter line)
T2 sequence (Q9NR97 27-1041): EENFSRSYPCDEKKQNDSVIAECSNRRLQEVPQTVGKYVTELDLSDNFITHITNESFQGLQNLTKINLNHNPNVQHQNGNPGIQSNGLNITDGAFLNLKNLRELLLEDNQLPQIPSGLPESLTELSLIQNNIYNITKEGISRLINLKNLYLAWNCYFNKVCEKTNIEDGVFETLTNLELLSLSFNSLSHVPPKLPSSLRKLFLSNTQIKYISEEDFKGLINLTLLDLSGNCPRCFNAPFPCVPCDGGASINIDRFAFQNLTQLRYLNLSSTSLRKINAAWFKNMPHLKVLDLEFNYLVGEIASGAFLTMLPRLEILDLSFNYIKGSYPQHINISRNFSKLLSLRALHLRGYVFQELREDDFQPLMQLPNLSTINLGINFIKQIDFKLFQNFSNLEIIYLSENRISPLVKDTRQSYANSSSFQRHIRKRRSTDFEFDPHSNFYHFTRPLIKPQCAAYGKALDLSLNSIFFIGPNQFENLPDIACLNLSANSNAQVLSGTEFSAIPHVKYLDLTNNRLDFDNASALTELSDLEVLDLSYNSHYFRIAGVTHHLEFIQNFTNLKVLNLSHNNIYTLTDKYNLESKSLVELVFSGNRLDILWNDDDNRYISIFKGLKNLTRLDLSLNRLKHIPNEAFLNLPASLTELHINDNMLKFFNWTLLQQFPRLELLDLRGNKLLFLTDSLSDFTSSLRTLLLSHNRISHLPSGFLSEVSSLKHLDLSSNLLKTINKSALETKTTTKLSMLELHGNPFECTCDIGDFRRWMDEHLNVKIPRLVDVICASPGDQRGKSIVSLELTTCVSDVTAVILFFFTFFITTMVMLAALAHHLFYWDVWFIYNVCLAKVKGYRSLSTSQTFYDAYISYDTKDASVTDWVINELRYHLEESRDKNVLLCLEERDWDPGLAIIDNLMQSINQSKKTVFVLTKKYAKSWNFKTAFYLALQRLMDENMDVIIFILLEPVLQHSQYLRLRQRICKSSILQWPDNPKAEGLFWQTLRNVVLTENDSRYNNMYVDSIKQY
Description: Toll-like receptor 8 in vitro receptor binding activity screen (HEK-blue hTLR8 cell, Quanti-Blue alkaline phosphatase readout). The format is cell-based. Conditions: versus GS-9620. The protocol:
as §1, §2, §3, §4, §5, §6, §7, §8, §9

A short description of series [2]: High temperature stability test (60° C., open container). Format: physicochemical. Conditions: for Appearance / Content / Total content of impurities: open container. The protocol:
The crystal form A of the compound of formula I was tested in the accelerated test under high temperature conditions for stability in accordance with Guidelines for the Stability Test of Pharmaceutical Ingredients and Pharmaceutical Preparations (Chinese Pharmacopoeia 2010 Appendix XIXC).
The crystal form A prepared in Example 1 was placed in an open-clean container at 60° C. The samples were taken for test on day 10, day 20 and day 30, respectively.

Series [3] in a line: High humidity stability test (40° C./75% humidity, open). Format: physicochemical. Conditions: for Appearance / Content / Total content of impurities: 40° C./75% humidity (open). The protocol: The crystal form A of the compound of formula I was tested in the accelerated test under high humidity conditions for stability in accordance with Guidelines for the Stability Test of Pharmaceutical Ingredients and Pharmaceutical Preparations (Chinese Pharmacopoeia 2010 Appendix XIXC).
The crystal form A prepared in Example 1 was subjected to an accelerated test in a constant temperature and humidity vessel under the conditions of 40° C./75% humidity (open). The samples were taken for test on day 30, day 60 and day 90, respectively.

On to `CCCCOc1nc(N)c2[nH]cc(Cc3ccc(CN4CCCC4)cc3)c2n1` [Compound of formula I, 2-butoxy-7-(4-(pyrrolidin-1-ylmethyl)benzyl)-5H-pyrrolo[3,2-d]pyrimidin-4-amine], for which, in series [1], the “TNF-α MEC” value turned out to be 500 nM and the “IFN-α MEC” value was determined as 5 nM. Moreover, in series [1] (versus GS-9620), the “TNF-α inducing activity compared with control GS-9620 (in words)” value is “comparable TNF-α inducing activity” and the “in vitro IFN-α inducing activity of PBMCs compared with control GS-9620 (in words)” value is “better in vitro IFN-α inducing activity of PBMCs”. The “in vitro receptor binding activity to Toll-like receptor 7 compared with control GS-9620 (in words)” value at Toll-like receptor 7 is reported as “higher in vitro receptor binding activity to Toll-like receptor 7 than the control”. The “in vitro receptor binding activity to Toll-like receptor 8 compared with control GS-9620 (in words)” value at Toll-like receptor 8 is reported as “lower in vitro receptor binding activity to Toll-like receptor 8 than the control”.

For `CCCCOc1nc(N)c2c(n1)N(Cc1cccc(CN3CCCC3)c1)CC(=O)N2` [GS-9620, reference compound], in series [1], the “TNF-α MEC” value is given as 500 nM and the “IFN-α MEC” value turned out to be 50 nM.

With `CCCCOc1nc(N)c2[nH]cc(Cc3ccc(CN4CCCC4)cc3)c2n1` [crystal form A, 2-butoxy-7-(4-(pyrrolidin-1-ylmethyl)benzyl)-5H-pyrrolo[3,2-d]pyrimidin-4-amine], the Appearance entry in series [2] (day 0 (initial)) was “White powder”; in series [2] (day 10), “Light yellow powder”; in series [2] (day 20) it was “Light yellow powder”; in series [2] (day 30), “Light yellow powder”; in series [3] (day 0 (initial)), “White powder”; in series [3] (day 30) it was “White powder”. Also, the Appearance result in series [3] (day 60) and in series [3] (day 90) was “White powder” each time. Further, the Content stood at 99.8% in series [2] (day 0 (initial)); 98.5% in series [2] (day 10); 98.1% in series [2] (day 20); 98.8% in series [2] (day 30); 100.2% in series [3] (day 0 (initial)); 99.9% in series [3] (day 30). Also, the Content in series [3] (day 60) worked out at 99.9%; in series [3] (day 90), 100.2%. The “Total content of impurities” value in series [2] (day 0 (initial)) is 0.92%; in series [2] (day 10) it was 1.10%; in series [2] (day 20), 1.18%; in series [2] (day 30) it was 1.29%; in series [3] (day 0 (initial)), 0.92%; in series [3] (day 30), 0.92%. Besides, the figures for the “Total content of impurities” value in series [3] (day 60) and in series [3] (day 90) were 0.65% and 0.93%, respectively. For the same compound, the “stability in high temperature conditions (in words)” value in series [2] (up to 30 days) was “good stability in high temperature conditions”. For the same compound, the “stability in high humidity conditions (in words)” value in series [3] (40° C./75% humidity, up to 90 days) is on record as “good stability in high humidity conditions”.
